Reference: the supplement of paper PMC13380429

Tests used:
[1] = tested on: A549-ACE2 infected with SARS-CoV-2; experiment: cell count relative to DMSO; higher = less toxic; details: 24 h
Caco-2 [2] = experiment: cell viability relative to DMSO; higher = less toxic; details: 72 h
Calu-3 [3] = experiment: as above; details: 72 h
HepG2 [4] = experiment: as above; details: 72 h
U2OS [5] = experiment: as above; details: 72 h
Vero E6 [6] = experiment: as above; details: 72 h
[7] = tested on: A549-ACE2 infected with SARS-CoV-2; experiment: SARS-CoV-2 infection rate relative to DMSO; higher = more infection; details: 24 h
A549-ACE2 [8] = experiment: phospholipidosis EC50; higher = less potent phospholipidosis inducer
A549-ACE2 [9] = experiment: drug-induced phospholipidosis relative to tamoxifen; higher = more phospholipidosis
[10] = tested on: A549-ACE2 infected with SARS-CoV-2; experiment: morphology score (similarity to uninfected cells); higher = more like uninfected cells; details: 24 h
Caco-2 [11] = experiment: relative viability EC50 (midpoint between 100% and the lowest measured viability); higher = less toxic; details: 72 h
Calu-3 [12] = experiment: as above; details: 72 h
U2OS [13] = experiment: as above; details: 72 h
Vero E6 [14] = experiment: as above; details: 72 h
Caco-2 [15] = experiment: drug sensitivity score (DSS) for viability; higher = more toxic; extreme values may be limits of the assay; details: 72 h
Calu-3 [16] = experiment: as above; details: 72 h
HepG2 [17] = experiment: as above; details: 72 h
U2OS [18] = experiment: as above; details: 72 h
Vero E6 [19] = experiment: as above; details: 72 h
HepG2 [20] = experiment: relative viability EC50 (midpoint between 100% and the lowest measured viability); higher = less toxic; details: 72 h

CN(C)c1ccccc1CN1CCCN(Cc2ccccc2N(C)C)C1c1ccncc1 [GANT-61]
Details	SARS-CoV-2 infection rate [%]	cell count [%]	cell viability [%]	morphology score	phospholipidosis EC50 [µM]
A549-ACE2 [8], 24 h	–	–	–	–	3.39
A549-ACE2 [8], 48 h	–	–	–	–	4.52
A549-ACE2 [8], 72 h	–	–	–	–	6.2
Caco-2 [2], 1 nM	–	–	94.5	–	–
Caco-2 [2], 10 nM	–	–	99.9	–	–
Caco-2 [2], 100 nM	–	–	92.7	–	–
Caco-2 [2], 1000 nM	–	–	99	–	–
Caco-2 [2], 10000 nM	–	–	95.9	–	–
Calu-3 [3], 1 nM	–	–	111	–	–
Calu-3 [3], 10 nM	–	–	109	–	–
Calu-3 [3], 100 nM	–	–	110	–	–
Calu-3 [3], 1000 nM	–	–	88.2	–	–
Calu-3 [3], 10000 nM	–	–	47.1	–	–
HepG2 [4], 1 nM	–	–	100	–	–
HepG2 [4], 10 nM	–	–	105	–	–
HepG2 [4], 100 nM	–	–	97.5	–	–
HepG2 [4], 1000 nM	–	–	95.3	–	–
HepG2 [4], 10000 nM	–	–	71.1	–	–
U2OS [5], 1 nM	–	–	97.5	–	–
U2OS [5], 10 nM	–	–	94	–	–
U2OS [5], 100 nM	–	–	95.8	–	–
U2OS [5], 1000 nM	–	–	100	–	–
U2OS [5], 10000 nM	–	–	93.5	–	–
Vero E6 [6], 1 nM	–	–	97.7	–	–
Vero E6 [6], 10 nM	–	–	101	–	–
Vero E6 [6], 100 nM	–	–	96	–	–
Vero E6 [6], 1000 nM	–	–	95.6	–	–
Vero E6 [6], 10000 nM	–	–	95	–	–
[1], 0.3 µM	–	95	–	–	–
[1], 3 µM	–	110	–	–	–
[1], 10 µM	–	117	–	–	–
[1], 30 µM	–	109	–	–	–
[7], 0.3 µM	99	–	–	–	–
[7], 3 µM	64	–	–	–	–
[7], 10 µM	33	–	–	–	–
[7], 30 µM	41	–	–	–	–
[10], 0.3 µM	–	–	–	-0.11	–
[10], 3 µM	–	–	–	0.59	–
[10], 10 µM	–	–	–	0.68	–
[10], 30 µM	–	–	–	0.26	–

drug-induced phospholipidosis [%], A549-ACE2 [9]
Details	0.3 µM	0.833333 µM	3.33333 µM	6.66667 µM	10 µM	30 µM
24 h	3.13	5.25	60.1	90.1	94.9	116
48 h	6.4	5.75	51.9	94.9	118	135
72 h	6.86	6.64	47	96.1	125	–

Details	drug sensitivity score	relative viability EC50 [µM]
Caco-2 [11]	–	> 10
Caco-2 [15]	0	–
Calu-3 [12]	–	1.65
Calu-3 [16]	4.7	–
HepG2 [17]	2	–
U2OS [13]	–	> 10
U2OS [18]	0	–
Vero E6 [14]	–	> 10
Vero E6 [19]	0	–

COc1cccc(CCc2ccccc2OCC[C@@H]2C[C@@H](O)CN2C)c1
Details	SARS-CoV-2 infection rate [%]	cell count [%]	cell viability [%]	morphology score	phospholipidosis EC50 [µM]
A549-ACE2 [8], 24 h	–	–	–	–	4.19
A549-ACE2 [8], 48 h	–	–	–	–	6.86
A549-ACE2 [8], 72 h	–	–	–	–	13.6
Caco-2 [2], 1 nM	–	–	96.1	–	–
Caco-2 [2], 10 nM	–	–	97.4	–	–
Caco-2 [2], 100 nM	–	–	104	–	–
Caco-2 [2], 1000 nM	–	–	85.9	–	–
Caco-2 [2], 10000 nM	–	–	90	–	–
Calu-3 [3], 1 nM	–	–	101	–	–
Calu-3 [3], 10 nM	–	–	92.9	–	–
Calu-3 [3], 100 nM	–	–	97.2	–	–
Calu-3 [3], 1000 nM	–	–	91.6	–	–
Calu-3 [3], 10000 nM	–	–	80.2	–	–
HepG2 [4], 1 nM	–	–	86.5	–	–
HepG2 [4], 10 nM	–	–	91.3	–	–
HepG2 [4], 100 nM	–	–	85.7	–	–
HepG2 [4], 1000 nM	–	–	96.8	–	–
HepG2 [4], 10000 nM	–	–	74.2	–	–
U2OS [5], 1 nM	–	–	101	–	–
U2OS [5], 10 nM	–	–	98.4	–	–
U2OS [5], 100 nM	–	–	100	–	–
U2OS [5], 1000 nM	–	–	98.3	–	–
U2OS [5], 10000 nM	–	–	92.9	–	–
Vero E6 [6], 1 nM	–	–	105	–	–
Vero E6 [6], 10 nM	–	–	102	–	–
Vero E6 [6], 100 nM	–	–	97.5	–	–
Vero E6 [6], 1000 nM	–	–	98.8	–	–
Vero E6 [6], 10000 nM	–	–	84.9	–	–
[1], 0.3 µM	–	97	–	–	–
[1], 3 µM	–	111	–	–	–
[1], 10 µM	–	119	–	–	–
[1], 30 µM	–	99	–	–	–
[7], 0.3 µM	105	–	–	–	–
[7], 3 µM	62	–	–	–	–
[7], 10 µM	22	–	–	–	–
[7], 30 µM	20	–	–	–	–
[10], 0.3 µM	–	–	–	-0.09	–
[10], 3 µM	–	–	–	0.68	–
[10], 10 µM	–	–	–	0.87	–
[10], 30 µM	–	–	–	0.46	–

drug-induced phospholipidosis [%], A549-ACE2 [9]
Details	0.3 µM	0.833333 µM	3.33333 µM	6.66667 µM	10 µM	30 µM
24 h	0.95	6.59	62.7	89.3	95.1	128
48 h	5.49	6.45	45.9	81.8	98.6	139
72 h	4.74	4.21	42.1	79.5	98.4	166

Details	drug sensitivity score	relative viability EC50 [µM]
Caco-2 [11]	–	> 10
Caco-2 [15]	1	–
Calu-3 [12]	–	> 10
Calu-3 [16]	0.9	–
HepG2 [17]	0	–
HepG2 [20]	–	> 10
U2OS [13]	–	> 10
U2OS [18]	0	–
Vero E6 [14]	–	> 10
Vero E6 [19]	0.3	–

CC[C@@H](C)CNCC(=O)N1CCc2sccc2[C@@H]1COc1cccc(C)c1 [RU-SKI-43]
Details	SARS-CoV-2 infection rate [%]	cell count [%]	cell viability [%]	morphology score	phospholipidosis EC50 [µM]
A549-ACE2 [8], 24 h	–	–	–	–	3.7
A549-ACE2 [8], 48 h	–	–	–	–	4.58
A549-ACE2 [8], 72 h	–	–	–	–	6.66
Caco-2 [2], 1 nM	–	–	98.8	–	–
Caco-2 [2], 10 nM	–	–	103	–	–
Caco-2 [2], 100 nM	–	–	90.4	–	–
Caco-2 [2], 1000 nM	–	–	107	–	–
Caco-2 [2], 10000 nM	–	–	83.2	–	–
Calu-3 [3], 1 nM	–	–	94.9	–	–
Calu-3 [3], 10 nM	–	–	103	–	–
Calu-3 [3], 100 nM	–	–	102	–	–
Calu-3 [3], 1000 nM	–	–	109	–	–
Calu-3 [3], 10000 nM	–	–	80.8	–	–
HepG2 [4], 1 nM	–	–	104	–	–
HepG2 [4], 10 nM	–	–	94.5	–	–
HepG2 [4], 100 nM	–	–	99.6	–	–
HepG2 [4], 1000 nM	–	–	108	–	–
HepG2 [4], 10000 nM	–	–	86.8	–	–
U2OS [5], 1 nM	–	–	95.5	–	–
U2OS [5], 10 nM	–	–	98.1	–	–
U2OS [5], 100 nM	–	–	94.4	–	–
U2OS [5], 1000 nM	–	–	99.5	–	–
U2OS [5], 10000 nM	–	–	93	–	–
Vero E6 [6], 1 nM	–	–	93.7	–	–
Vero E6 [6], 10 nM	–	–	92.9	–	–
Vero E6 [6], 100 nM	–	–	90.4	–	–
Vero E6 [6], 1000 nM	–	–	98.3	–	–
Vero E6 [6], 10000 nM	–	–	92.8	–	–
[1], 0.3 µM	–	98	–	–	–
[1], 3 µM	–	116	–	–	–
[1], 10 µM	–	119	–	–	–
[1], 30 µM	–	100	–	–	–
[7], 0.3 µM	102	–	–	–	–
[7], 3 µM	60	–	–	–	–
[7], 10 µM	24	–	–	–	–
[7], 30 µM	24	–	–	–	–
[10], 0.3 µM	–	–	–	-0.05	–
[10], 3 µM	–	–	–	0.65	–
[10], 10 µM	–	–	–	0.83	–
[10], 30 µM	–	–	–	0.3	–

drug-induced phospholipidosis [%], A549-ACE2 [9]
Details	0.3 µM	0.833333 µM	3.33333 µM	6.66667 µM	10 µM	30 µM
24 h	2.31	9.84	41	92	102	95.8
48 h	1.76	10.7	27.3	78.5	100	95
72 h	3.03	9.34	27.4	73.8	102	–

Details	drug sensitivity score	relative viability EC50 [µM]
Caco-2 [11]	–	> 10
Caco-2 [15]	0.2	–
Calu-3 [12]	–	> 10
Calu-3 [16]	0.3	–
HepG2 [17]	0	–
HepG2 [20]	–	> 10
U2OS [13]	–	> 10
U2OS [18]	0	–
Vero E6 [14]	–	> 10
Vero E6 [19]	0	–
